# Measured values taken from patent publication US20240199605A1, “SMALL MOLECULAR INHIBITORS OF NF-kB INDUCING KINASE” (Janssen Pharmaceutica NV, priority 2019, published 2024).
# Where two headings read alike, the source gives them in different places.
# Tests used:
# [1] = tested on: p-IKKα levels in L363 (NIK translocated multiple myeloma) cells; test: Effect of compounds on p-IKKα levels in L363 cells (AlphaLISA SureFire Ultra); type: cell-based, human; conditions: BAFF stimulated, MG132, 6 h, average of values, read-out: Assay 2 IC50
# Description: Effect of Compounds on p-IKKα Levels in L363 (NIK Translocated Multiple Myeloma) Cells
# All compounds tested were dissolved and serially diluted in DMSO, 1:3 dilution for 11 points in an Echo compatible plate. 100% DMSO was added to columns 12 and 24 of the plate to serve as high and low signal controls. This compound plate was used to spot 20 nL of compound or DMSO into a Greiner 384 well TC plate (781080). The final DMSO concentration was 0.3% (v/v) in cell assays. Human L363 cells (ATCC) were cultured in RPM11640 medium supplemented with GlutaMax, non-essential amino acids, sodium pyruvate and 10% fetal bovine serum. Cells were routinely maintained at densities of […] at 37° C. in a humidified 5% CO2 atmosphere incubator. Cells were passaged twice a week splitting back to obtain the low density. The day before the assay, cells were washed twice in HBSS (Hank's Balanced Salt Solution), resuspended in Dulbecco's Modified Eagle Medium (DMEM)+0.5% IgG and protease free BSA (Jackson Immuno Research Laboratories), +/−250 ng/ml recombinant human B-cell activating factor (BAFF/BLyS/TNFSF13B) and incubated overnight at 37° C. in a humidified 5% CO2 atmosphere (bulk stimulation with or without BAFF). The next day, the cell concentration was adjusted to 1×10^7 cells/ml in DMEM+/−250 ng/ml BAFF+/−10 μM MG132 and plated at 10 μl/well into compound or DMSO spotted 384 well TC plates. Seeded cells were incubated at 37° C. in a humidified 5% CO2 atmosphere for 6 h. After 6 h, the plates were removed from the incubator and cell lysis was achieved by the addition of 2.5 μl 5× lysis buffer containing protease and phosphatase inhibitors, followed by shaking on a plate shaker at room temperature for 15 min. At the end of this incubation, lysed cells were sequentially treated and incubated with acceptor and donor bead mixes according to the manufacturer's protocol for a 1 plate/2-incubation suspension cell assay (AlphaLISA SureFire Ultra p-IKKa (Ser 176/180) Assay Kit (Perkin Elmer). Plates were read using an EnVision® Multilabel Plate Reader (Perkin Elmer). Within an experiment, a concentration response curve for each compound was run in duplicate. The signal obtained in the test wells was normalized using high signal (BAFF stimulated cells, DMSO, MG132) and low signal (unstimulated cells, DMSO) controls. To determine the IC50, a sigmoidal curve was fitted to the plot of % inhibition versus Log10 compound concentration.
# [2] = target: recombinant human NF-kappaB-inducing kinase (NIK/MAP3K14) (Homo sapiens (Human), UniProt Q99558); test: Inhibition of auto-phosphorylation of recombinant human NIK/MAP3K14 (AlphaScreen); type: biochemical; conditions: NIK auto-phosphorylation, 5 μM ATP, 1 nM NIK, 2 h at 25° C.; average of values
# Description: Inhibition of auto-phosphorylation of recombinant human NF-kappaB-inducing kinase (NIK/MAP3K14) activity (AlphaScreen®)
# NIK/MAP3K14 auto-phosphorylation activity was measured using the AlphaScreen® (αscreen) format (Perkin Elmer). All compounds tested were dissolved in dimethyl sulfoxide (DMSO) and further dilutions were made in assay buffer. The final DMSO concentration was 0.7% (v/v) in assays. The assay buffer was 50 mM Tris pH 7.5 containing 1 mM EGTA (ethylene glycol tetraacetic acid), 1 mM DTT (dithiothreitol), 0.1 mM Na3VO4, 5 mM MgCl2, and 0.01% Tween® 20. The assays were carried out in 384 well Proxiplates (Perkin Elmer). The incubations consisted of the compound, 5 μM Adenosine-5′-triphosphate (ATP), and 1 nM NIK/MAP3K14. Incubations were initiated by the addition of GST-tagged NIK/MAP3K14 enzyme, carried out for 2 h at 25° C. and terminated by addition of stop buffer containing anti-phospho-IKK Ser176/180 antibody. Protein A Acceptor and Glutathione-Donor beads were added before reading using an EnVision® Multilabel Plate Reader (Perkin Elmer). […] IC50's were determined by fitting a sigmoidal curve to % inhibition of control versus Log10 compound concentration.
# Sequence of recombinant human NF-kappaB-inducing kinase (NIK/MAP3K14) (Q99558 whole entry): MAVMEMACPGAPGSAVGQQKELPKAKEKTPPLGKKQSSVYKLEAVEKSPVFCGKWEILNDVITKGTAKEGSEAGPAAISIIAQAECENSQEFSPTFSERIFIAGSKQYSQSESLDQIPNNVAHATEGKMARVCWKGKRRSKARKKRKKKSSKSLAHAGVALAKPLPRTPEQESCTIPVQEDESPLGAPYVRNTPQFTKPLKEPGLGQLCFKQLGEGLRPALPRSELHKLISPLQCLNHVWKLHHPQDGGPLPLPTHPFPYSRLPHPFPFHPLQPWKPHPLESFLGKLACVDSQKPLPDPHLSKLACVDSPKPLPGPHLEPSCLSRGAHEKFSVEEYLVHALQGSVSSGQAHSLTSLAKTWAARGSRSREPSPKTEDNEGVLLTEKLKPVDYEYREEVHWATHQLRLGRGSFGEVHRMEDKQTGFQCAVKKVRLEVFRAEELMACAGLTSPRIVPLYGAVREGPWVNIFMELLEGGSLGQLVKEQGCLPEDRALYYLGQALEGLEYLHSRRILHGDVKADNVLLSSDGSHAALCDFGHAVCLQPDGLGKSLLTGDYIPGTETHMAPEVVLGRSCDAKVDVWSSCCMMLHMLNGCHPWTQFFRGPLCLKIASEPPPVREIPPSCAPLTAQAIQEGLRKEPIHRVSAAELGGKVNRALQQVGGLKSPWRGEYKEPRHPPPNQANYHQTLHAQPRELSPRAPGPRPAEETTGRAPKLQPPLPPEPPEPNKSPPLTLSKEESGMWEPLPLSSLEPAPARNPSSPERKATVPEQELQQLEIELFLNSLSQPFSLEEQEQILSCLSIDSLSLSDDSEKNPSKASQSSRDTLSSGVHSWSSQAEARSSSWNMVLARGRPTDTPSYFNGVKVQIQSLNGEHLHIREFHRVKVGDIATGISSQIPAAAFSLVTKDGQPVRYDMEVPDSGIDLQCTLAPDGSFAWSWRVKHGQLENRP
SMILES,"IC50 ([1]; Homo sapiens, L-363, 6 h)",IC50 [2],IC50 [1]
"Cc1nc(N)c2nc(-c3cc(C#C[C@]4(O)CCN(C)C4=O)ccc3OC(F)(F)F)ccc2n1 [Example 237, (R)-3-((3-(4-Amino-2-methylpyrido[3,2-d]pyrimidin-6-yl)-4-(trifluoromethoxy)phenyl)ethynyl)-3-hydroxy-1-methylpyrrolidin-2-one]",240 nM,9.2 nM,
"CN1CC[C@@](O)(C#Cc2cccc(-c3cc(C4CCN4)c4ncnc(N)c4n3)c2)C1=O (stereo partly drawn) [Example 313, (3R)-3-((3-(4-Amino-8-(azetidin-2-yl)pyrido[3,2-d]pyrimidin-6-yl-2-d)phenyl)ethynyl)-3-hydroxy-1-methylpyrrolidin-2-one]",,3.1 nM,231 nM
"Cc1cnc(C)c2nc(-c3cccc(C#C[C@]4(O)CCN(C)C4=O)c3)ccc12 [Example 252, (R)-3-((3-(5,8-Dimethyl-1,7-naphthyridin-2-yl)phenyl)ethynyl)-3-hydroxy-1-methylpyrrolidin-2-one]",> 2000 nM,31 nM,
"Cc1ccc(-c2nc3c(N)ncnc3s2)cc1C#C[C@]1(O)CCN(C)C1=O [Example 152, (R)-3-((5-(7-Aminothiazolo[5,4-d]pyrimidin-2-yl)-2-methylphenyl)ethynyl)-3-hydroxy-1-methylpyrrolidin-2-one]",200 nM,3.8 nM,
"CN1CC[C@@](O)(C#Cc2cccc(-c3ccc4ncnc(NCC#N)c4n3)c2)C1=O [Example 240, (R)-2-((6-(3-((3-Hydroxy-1-methyl-2-oxopyrrolidin-3-yl)ethynyl)phenyl)pyrido[3,2-d]pyrimidin-4-yl)amino)acetonitrile]",570 nM,21 nM,
"Cc1nc(N)c2nc(-c3cccc(C#C[C@](C)(O)c4ccccn4)c3)ccc2n1 [Example 191, (S)-4-[3-(4-Amino-2-methyl-pyrido[3,2-d]pyrimidin-6-yl)phenyl]-2-(2-pyridyl)but-3-yn-2-ol]",2980 nM,15 nM,
"Cc1ccc(-c2ncc3ccnc(N)c3n2)cc1C#C[C@]1(O)CCN(C)C1=O [Example 40, (R)-3-((5-(8-Aminopyrido[3,4-d]pyrimidin-2-yl)-2-methylphenyl)ethynyl)-3-hydroxy-1-methylpyrrolidin-2-one]",210 nM,0.7 nM,
"Cc1nc(N)c2nc(-c3cccc(C#C[C@@]4(O)C[C@H](C)N(C)C4=O)c3)ccc2n1 [Example 266, (3S,5S)-3-((3-(4-Amino-2-methylpyrido[3,2-d]pyrimidin-6-yl)phenyl)ethynyl)-3-hydroxy-1,5-dimethylpyrrolidin-2-one]",3700 nM,680 nM,
"Cc1nc(N)c2nc(-c3cccc(C#C[C@]4(O)CCN(C)C4=O)c3)c(C)cc2n1 [Example 178, (R)-3-((3-(4-Amino-2,7-dimethylpyrido[3,2-d]pyrimidin-6-yl)phenyl)ethynyl)-3-hydroxy-1-methylpyrrolidin-2-one]",820 nM,18 nM,

# Further molecules by falling IC50 ([1]; Homo sapiens, L-363, 6 h), results first:
"IC50 ([1]; Homo sapiens, L-363, 6 h)",IC50 [2],SMILES,IC50 [1]
150 nM,≤ 0.5 nM,"CN1CC[C@@](O)(C#Cc2cccc(-c3ncc4c(-c5cnn(CCN)c5)cnc(N)c4n3)c2)C1=O [Example 134, (R)-3-[2-[3-[8-Amino-5-[1-(2-aminoethyl)pyrazol-4-yl]pyrido[3,4-d]pyrimidin-2-yl]phenyl]ethynyl]-3-hydroxy-1-methyl-pyrrolidin-2-one]",
110 nM,2.5 nM,"Cc1cc(C#C[C@]2(O)CCc3cccnc32)cc(-c2ncc3ccnc(N)c3n2)c1 [Example 52, (R)-7-[2-[3-(8-Aminopyrido[3,4-d]pyrimidin-2-yl)-5-methyl-phenyl]ethynyl]-5,6-dihydrocyclopenta[b]pyridin-7-ol]",
65 nM,1.3 nM,"Cc1ccc(C#C[C@]2(O)CCN(C)C2=O)cc1N1CCc2ncnc(N)c2C1 [Example 220, (R)-3-((3-(4-Amino-7,8-dihydropyrido[4,3-d]pyrimidin-6(5H)-yl)-4-methylphenyl)ethynyl)-3-hydroxy-1-methylpyrrolidin-2-one]",
60 nM,0.9 nM,"Cc1ccc(C#C[C@]2(O)CCN(C)C2=O)cc1-c1ncc2ccnc(N)c2n1 [Example 43, (R)-3-((3-(8-Aminopyrido[3,4-d]pyrimidin-2-yl)-4-methylphenyl)ethynyl)-3-hydroxy-1-methylpyrrolidin-2-one]",
35 nM,0.6 nM,"Cc1nc(-c2cccc(C#C[C@]3(O)CCN(C)C3=O)c2)nc2c(N)nccc12 [Example 37, (R)-3-((3-(8-Amino-4-methylpyrido[3,4-d]pyrimidin-2-yl)phenyl)ethynyl)-3-hydroxy-1-methylpyrrolidin-2-one]",
27 nM,2.7 nM,"Cc1nc(N)c2nc(-c3cccc(C#C[C@@]4(O)C(=O)N(C)[C@@H]5C[C@@H]54)c3)ccc2n1 [Example 273, (1R,4R,5S)-4-((3-(4-Amino-2-methylpyrido[3,2-d]pyrimidin-6-yl)phenyl)ethynyl)-4-hydroxy-2-methyl-2-azabicyclo[3.1.0]hexan-3-one]",
26 nM,1.2 nM,"CN1CC[C@@](O)(C#Cc2cccc(-c3nc4c(N)ncnc4s3)c2)C1=O [Example 101, (R)-3-((3-(7-Aminothiazolo[5,4-d]pyrimidin-2-yl)phenyl)ethynyl)-3-hydroxy-1-methylpyrrolidin-2-one]",
19 nM,2.4 nM,"[2H]c1nc(N)c2nc(-c3cc(C#C[C@]4(O)CCN(C)C4=O)ccc3OC)ccc2n1 [Example 160, (R)-3-((3-(4-Aminopyrido[3,2-d]pyrimidin-6-yl-2-d)-4-methoxyphenyl)ethynyl)-3-hydroxy-1-methylpyrrolidin-2-one]",
15 nM,0.7 nM,"CN1CC[C@@](O)(C#Cc2cccc(-c3cc(C4CCOCC4)c4ncnc(N)c4n3)c2)C1=O [Example 255, (R)-3-((3-(4-Amino-8-(tetrahydro-2H-pyran-4-yl)pyrido[3,2-d]pyrimidin-6-yl)phenyl)ethynyl)-3-hydroxy-1-methylpyrrolidin-2-one]",
8.9 nM,≤ 0.5 nM,"[2H]c1nc(N)c2nc(-c3cccc(C#C[C@@]4(O)C(=O)N(C)[C@@H]5C[C@@H]54)c3)ccc2n1 [Example 276, (1R,4R,5S)-4-((3-(4-Aminopyrido[3,2-d]pyrimidin-6-yl-2-d)phenyl)ethynyl)-4-hydroxy-2-methyl-2-azabicyclo[3.1.0]hexan-3-one]",
3.7 nM,≤ 0.5 nM,"CN1CC[C@@](O)(C#Cc2cccc(-c3ncc4ccnc(N)c4n3)c2)C1=O [Example 1, (R)-3-[2-[3-(8-Aminopyrido[3,4-d]pyrimidin-2-yl)phenyl]ethynyl]-3-hydroxy-1-methyl-pyrrolidin-2-one]",
2.8 nM,≤ 0.5 nM,"CN1CC[C@@](O)(C#Cc2cccc(-c3ncc4ncnc(N)c4n3)c2)C1=O [Example 13, (R)-3-[2-[3-(4-Aminopyrimido[5,4-d]pyrimidin-6-yl)phenyl]ethynyl]-3-hydroxy-1-methyl-pyrrolidin-2-one]",
1.5 nM,≤ 0.5 nM,"CN1CC[C@@](O)(C#Cc2cccc(-c3ccc4c(C#N)cnc(N)c4n3)c2)C1=O [Example 118, (R)-8-Amino-2-[3-[2-(3-hydroxy-1-methyl-2-oxo-pyrrolidin-3-yl)ethynyl]phenyl]-1,7-naphthyridine-5-carbonitrile]",
